From patent US20230174571A1, “METHOD OF TREATING SHIP1-MEDIATED DISEASES USING PELOROL DERIVATIVES” (Zebrapeutics Inc., priority 2020, published 2023)

How the values were obtained:
[1] = target: T1, SHIP1 and STAT3 (Mus musculus, UniProt Q9ES52); assay: In vitro pull down assay of His6-SHIP1 with STAT3; assay type: cell-based; conditions: J17 His6-SHIP1 cells; 100 ng/ml IL10 or IL6, 20 μM compound I-2; 5 minutes
T1 construct: expressed in transfected cells; host or cells: J17 (SHIP1-/- mouse BMDM-derived line), lentiviral transduction
T1 sequence (Q9ES52 1-1191): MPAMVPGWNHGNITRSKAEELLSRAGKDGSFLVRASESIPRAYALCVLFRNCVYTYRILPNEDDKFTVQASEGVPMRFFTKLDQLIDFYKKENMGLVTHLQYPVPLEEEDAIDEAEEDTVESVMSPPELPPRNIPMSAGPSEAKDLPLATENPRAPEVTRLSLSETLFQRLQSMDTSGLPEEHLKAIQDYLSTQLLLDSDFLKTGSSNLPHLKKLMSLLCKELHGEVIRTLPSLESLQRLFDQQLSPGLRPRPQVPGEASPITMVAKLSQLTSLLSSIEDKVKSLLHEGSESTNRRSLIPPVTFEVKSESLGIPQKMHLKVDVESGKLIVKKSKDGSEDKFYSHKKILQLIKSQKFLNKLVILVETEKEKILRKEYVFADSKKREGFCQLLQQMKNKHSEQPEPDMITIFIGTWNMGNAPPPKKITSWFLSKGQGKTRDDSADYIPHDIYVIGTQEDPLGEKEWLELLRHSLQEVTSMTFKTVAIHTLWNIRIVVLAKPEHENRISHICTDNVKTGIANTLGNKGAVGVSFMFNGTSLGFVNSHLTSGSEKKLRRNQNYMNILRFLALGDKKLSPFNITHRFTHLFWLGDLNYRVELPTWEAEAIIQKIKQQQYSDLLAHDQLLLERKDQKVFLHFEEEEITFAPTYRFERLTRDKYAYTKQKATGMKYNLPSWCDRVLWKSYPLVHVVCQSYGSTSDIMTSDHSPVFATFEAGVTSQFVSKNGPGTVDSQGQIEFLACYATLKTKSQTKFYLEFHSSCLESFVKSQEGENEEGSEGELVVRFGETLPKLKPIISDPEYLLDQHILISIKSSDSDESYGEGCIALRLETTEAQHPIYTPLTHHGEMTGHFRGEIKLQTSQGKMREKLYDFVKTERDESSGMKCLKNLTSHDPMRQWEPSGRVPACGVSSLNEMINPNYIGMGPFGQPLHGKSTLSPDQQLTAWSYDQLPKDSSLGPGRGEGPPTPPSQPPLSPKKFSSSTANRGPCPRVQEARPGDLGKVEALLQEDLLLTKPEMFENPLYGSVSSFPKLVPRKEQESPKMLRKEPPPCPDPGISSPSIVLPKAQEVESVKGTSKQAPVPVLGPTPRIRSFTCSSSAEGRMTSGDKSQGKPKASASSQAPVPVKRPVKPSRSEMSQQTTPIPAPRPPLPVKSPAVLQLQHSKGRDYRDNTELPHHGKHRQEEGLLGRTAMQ
Procedure: In vitro pull down assay. J17 His6-SHIP1 and Y190F cells were seeded at 2×10^6 cells per well in a 6-well plate. After overnight incubation, fresh cell media was added for 30 minutes before stimulation with 100 ng/ml IL10, […] or 20 μM compound I-2 for 5 minutes. Cells were lysed with Protein Solubilization Buffer (PSB, 50 mM Hepes, pH 7.5, […], 10 mM Na Pyrophosphate, 2 mM NaVO4, 2 mM Na Molybdate, 2 mM EDTA) containing 1% octylglucoside, 0.01 M imidazole, and protease inhibitor cocktail (Roche Diagnostics, Laval, QC) for 30 minutes at 4° C. and centrifuged at 10000 rpm for 15 minutes. EDTA resistant Ni beads (Roche Diagnostics, Laval, QC) were added to supernatants and the mixture incubated at 4° C. for 1 hour before spinning down and washing of beads three times with 0.1% octylglucoside wash buffer in PSB. Bead samples and starting material cell lysates were separated on a 7.5% SDS-PAGE gel.
Immunoblotting. Protein lysates were separated on SDS-PAGE gels and transferred onto polyvinylidene fluoride (PVDF) membrane (Millipore, Etobicoke, ON). Membranes were blocked and probed, where appropriate, with the following primary antibodies overnight: SHIP1 (P1C1) (Santa Cruz Biotechnology), pSHIP1 (Y190) (Kinexus), STAT3 (9D8) (ThermoFisher Scientific), pSTAT3 (Y705) (Thermo Fisher Scientific), STAT1 (BD Transduction Laboratories), pSTAT1 (Y701) (Upstate Biotechnology), GAPDH and actin (Sigma-Aldrich). Membranes were developed with either Alexa Fluor® 660 anti-mouse IgG or Alexa Fluor® 680 anti-rabbit IgG antibodies (Thermo Fisher Scientific) and imaged using a LI-COR Odyssey Imager.

[2] = target: T1, SHIP1 and STAT3; assay: Immunofluorescence of SHIP1 and STAT3 subcellular localization in peritoneal macrophages; assay type: cell-based; conditions: for membrane association of SHIP1 and STAT3 / nuclear localization of SHIP1 and STAT3: wild-type perimacs, 100 ng/ml IL10 or 20 μM I-2; for membrane association of SHIP1 and STAT3: 2 min; for nuclear localization of SHIP1 and STAT3: 20 min
Procedure: Isolation of mouse peritoneal macrophages. Primary peritoneal macrophages (perimacs) were isolated from mice by peritoneal lavage with 3 ml of sterile Phosphate Buffered Saline (PBS) (Thermo Fisher Scientific, Nepean, ON). Perimacs were collected and transferred to Mac media.
Immunofluorescence. Perimacs were seeded at 3×10^5 cells per well in 18-well Ibidi p-Slides (Ibidi GmbH, Martinsried, Germany) and allowed to adhere for 3 hours before washing with PBS to remove non-adherent cells. CD8+ T cells were seeded at 2×10^6 cells in 12-well tissue culture plates. Cells were stimulated with either 100 ng/ml IL10 or 20 μM compound I-2 for 2 or 20 minutes followed by 3×PBS washes and fixing of cells in 4% paraformaldehyde for 15 minutes at room temperature. Cells were incubated with anti-mouse CD16/CD32 Fc Block (BD Pharmingen) for 1 hour followed by an overnight incubation at 4° C. with either anti-SHIP1 antibody (P1C1) (Santa Cruz Biotechnology) or anti-STAT3 antibody (9D8) (ThermoFisher Scientific). Cells were then incubated with anti-mouse IgG (H+L)-Alexa Fluor 660 secondary antibody (ThermoFisher Scientific) for 1 hour, followed by, for perimacs, anti-CD11b-FITC antibody (BD Pharmingen) for 30 minutes. CD8+ T cells were mounted onto 18-well Ibidi p-Slides prior to confocal microscopy and cells were stored in Ibidi Mounting Media supplemented with ProLong Gold antifade reagent with DAPI (Molecular Probes, Life Technologies). Cells were imaged on a Leica SP5II on DM6000 confocal microscope with a 63×/1.4-0.6 Oil PL APO objective using 405, 488 and 633 nm laser lines for excitation. Final images were scanned sequentially acquiring eight Z-stacks with a frame-average of four. Co-localization analysis was performed using ImageJ software by first combining individual z-stack confocal images then performing deconvolution and co-localization using CUDA deconvolution and JACoP plugins respectively. Pearson's coefficient values were produced as a measurement of the degree of overlap between SHIP1 or STAT3 with CD11b (for Perimacs) or DAPI.

For `Cc1cc(O)cc2c1C1(C)CCC3C(C)(C)CCCC3(C)C1C2` (centres unmarked) [Compound I-1], the “association (co-precipitation) of SHIP1 and STAT3” value (from here on “association (co-precipitation)”) [1] was “could by itself induce formation of a SHIP1/STAT3 complex” and the “mimicry of IL10 with respect to SHIP1 and STAT3 translocations” value ([2]; peritoneal macrophages) was “can mimic IL10”.

For `CC12CCC3C(C)(C)C(N)CCC3(C)C1Cc1cc(O)cc(O)c12` (centres unmarked) [Compound I-2], the “association (co-precipitation)” value [1] was “sufficient to induce association of SHIP1 and STAT3”, the “membrane association of SHIP1 and STAT3” value [2] was “induced membrane association of both SHIP1 and STAT3” and the “nuclear localization of SHIP1 and STAT3” value [2] was “both SHIP1 and STAT3 are found in the nucleus”.

In the case of “IL10: anti-inflammatory cytokine interleukin-10”, the “association (co-precipitation)” value [1] is reported as “resulted in co-precipitation of SHIP1 with STAT3”, the “membrane association of SHIP1 and STAT3” value [2] is reported as “induced membrane association of both SHIP1 and STAT3” and the “nuclear localization of SHIP1 and STAT3” value [2] is reported as “both SHIP1 and STAT3 are found in the nucleus”.
